The record followed here is patent publication US12492188B2, “1H-benzo[D]imidazole derivatives as TLR9 inhibitors for the treatment of fibrosis” (BRISTOL-MYERS SQUIBB COMPANY, priority 2020, dated 2025).

Like-named read-outs stand apart in the source and are kept apart here. A value given as a limit tells only on which side of the number the result lay.

Format in all cases: cell-based
The target in one assay is T1, human TLR9 (Homo sapiens, UniProt Q9NR96).
T1 construct: host or cells: HEK-Blue cells (HEK293-derived reporter line)
T1 sequence (Q9NR96 26-1032): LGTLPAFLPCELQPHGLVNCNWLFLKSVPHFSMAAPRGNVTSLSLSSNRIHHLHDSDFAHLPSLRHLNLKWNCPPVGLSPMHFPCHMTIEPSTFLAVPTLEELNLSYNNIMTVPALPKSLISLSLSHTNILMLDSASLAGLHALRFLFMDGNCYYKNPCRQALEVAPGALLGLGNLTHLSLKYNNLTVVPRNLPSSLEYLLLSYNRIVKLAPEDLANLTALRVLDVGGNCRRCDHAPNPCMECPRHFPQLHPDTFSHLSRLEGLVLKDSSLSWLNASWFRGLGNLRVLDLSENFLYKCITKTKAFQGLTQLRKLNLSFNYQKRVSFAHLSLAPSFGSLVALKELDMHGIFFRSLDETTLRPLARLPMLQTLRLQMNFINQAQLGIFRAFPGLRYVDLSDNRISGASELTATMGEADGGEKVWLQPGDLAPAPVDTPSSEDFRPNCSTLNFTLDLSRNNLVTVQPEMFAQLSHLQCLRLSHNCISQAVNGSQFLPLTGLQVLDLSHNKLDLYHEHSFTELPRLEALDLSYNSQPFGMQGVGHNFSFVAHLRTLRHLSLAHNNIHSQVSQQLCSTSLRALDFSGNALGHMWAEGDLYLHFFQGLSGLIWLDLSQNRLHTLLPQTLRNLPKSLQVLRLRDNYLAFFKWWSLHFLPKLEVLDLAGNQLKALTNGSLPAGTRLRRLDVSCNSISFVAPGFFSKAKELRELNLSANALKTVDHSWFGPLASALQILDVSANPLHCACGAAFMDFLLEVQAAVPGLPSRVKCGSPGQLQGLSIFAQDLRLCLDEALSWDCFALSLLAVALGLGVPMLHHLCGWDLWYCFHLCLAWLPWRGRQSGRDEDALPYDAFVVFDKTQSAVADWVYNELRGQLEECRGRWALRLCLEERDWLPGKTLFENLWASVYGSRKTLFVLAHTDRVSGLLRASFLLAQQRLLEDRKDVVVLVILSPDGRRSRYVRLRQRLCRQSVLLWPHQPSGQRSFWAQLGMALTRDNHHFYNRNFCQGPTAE
As to the kind of experiment: TLR9 inhibition reporter assay (HEK-Blue cells, secreted embryonic alkaline phosphatase reporter). The following applies: HEK-Blue cells overexpressing human TLR9, stimulated with ODN2006 5 nM. The method, boiled down: (§1)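 Steps: seed receptor-specific HEK-Blue cells; add compound, 0.05 nM–50 μM; wait 30 min at room temperature; add final gardiquimod 7.5 μM, R848 15.9 μM or ODN2006 5 nM for TLR7, TLR8 or TLR9; incubate 22 h at 37 °C; detect NF-κB/AP-1-driven SEAP.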

For a further assay, the target named is T2, human TLR7 (Homo sapiens, UniProt Q9NYK1).
T2 construct: host or cells: HEK-Blue cells (HEK293-derived reporter line)
T2 sequence (Q9NYK1 27-1049): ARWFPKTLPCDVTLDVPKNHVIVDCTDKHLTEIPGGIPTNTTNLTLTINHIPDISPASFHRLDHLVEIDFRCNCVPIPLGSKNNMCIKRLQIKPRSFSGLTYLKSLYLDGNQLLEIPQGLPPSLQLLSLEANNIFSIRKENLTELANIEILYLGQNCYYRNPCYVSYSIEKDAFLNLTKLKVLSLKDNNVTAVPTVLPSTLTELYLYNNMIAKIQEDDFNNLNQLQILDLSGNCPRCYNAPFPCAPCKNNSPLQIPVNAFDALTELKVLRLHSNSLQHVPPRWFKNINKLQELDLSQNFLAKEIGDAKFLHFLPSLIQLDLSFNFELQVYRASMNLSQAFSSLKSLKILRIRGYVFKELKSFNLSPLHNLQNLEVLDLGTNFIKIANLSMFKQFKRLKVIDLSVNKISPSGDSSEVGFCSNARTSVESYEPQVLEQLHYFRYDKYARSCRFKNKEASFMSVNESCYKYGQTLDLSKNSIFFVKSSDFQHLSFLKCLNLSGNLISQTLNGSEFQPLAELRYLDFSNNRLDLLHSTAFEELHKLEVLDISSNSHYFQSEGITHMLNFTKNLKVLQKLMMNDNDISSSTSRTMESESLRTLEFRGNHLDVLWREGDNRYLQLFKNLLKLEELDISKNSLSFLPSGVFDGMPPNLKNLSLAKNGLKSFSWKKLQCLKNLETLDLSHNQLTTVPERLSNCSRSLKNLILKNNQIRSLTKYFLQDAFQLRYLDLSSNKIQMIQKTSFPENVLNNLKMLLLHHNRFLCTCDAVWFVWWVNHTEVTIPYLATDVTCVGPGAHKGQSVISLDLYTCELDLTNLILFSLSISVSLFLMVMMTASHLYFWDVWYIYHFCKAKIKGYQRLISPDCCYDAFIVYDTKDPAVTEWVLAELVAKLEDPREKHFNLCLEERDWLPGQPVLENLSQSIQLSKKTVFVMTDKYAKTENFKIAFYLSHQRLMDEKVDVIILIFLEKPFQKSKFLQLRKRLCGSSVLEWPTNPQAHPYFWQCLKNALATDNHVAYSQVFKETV
As to the kind of experiment: TLR7 inhibition reporter assay (HEK-Blue cells, secreted embryonic alkaline phosphatase reporter). The following applies: HEK-Blue cells overexpressing human TLR7, stimulated with gardiquimod 7.5 μM; read-out: TLR 7 IC50. The method, boiled down:
as §1

A further assay addresses T3, human TLR8 (Homo sapiens, UniProt Q9NR97).
T3 construct: host or cells: HEK-Blue cells (HEK293-derived reporter line)
T3 sequence (Q9NR97 27-1041): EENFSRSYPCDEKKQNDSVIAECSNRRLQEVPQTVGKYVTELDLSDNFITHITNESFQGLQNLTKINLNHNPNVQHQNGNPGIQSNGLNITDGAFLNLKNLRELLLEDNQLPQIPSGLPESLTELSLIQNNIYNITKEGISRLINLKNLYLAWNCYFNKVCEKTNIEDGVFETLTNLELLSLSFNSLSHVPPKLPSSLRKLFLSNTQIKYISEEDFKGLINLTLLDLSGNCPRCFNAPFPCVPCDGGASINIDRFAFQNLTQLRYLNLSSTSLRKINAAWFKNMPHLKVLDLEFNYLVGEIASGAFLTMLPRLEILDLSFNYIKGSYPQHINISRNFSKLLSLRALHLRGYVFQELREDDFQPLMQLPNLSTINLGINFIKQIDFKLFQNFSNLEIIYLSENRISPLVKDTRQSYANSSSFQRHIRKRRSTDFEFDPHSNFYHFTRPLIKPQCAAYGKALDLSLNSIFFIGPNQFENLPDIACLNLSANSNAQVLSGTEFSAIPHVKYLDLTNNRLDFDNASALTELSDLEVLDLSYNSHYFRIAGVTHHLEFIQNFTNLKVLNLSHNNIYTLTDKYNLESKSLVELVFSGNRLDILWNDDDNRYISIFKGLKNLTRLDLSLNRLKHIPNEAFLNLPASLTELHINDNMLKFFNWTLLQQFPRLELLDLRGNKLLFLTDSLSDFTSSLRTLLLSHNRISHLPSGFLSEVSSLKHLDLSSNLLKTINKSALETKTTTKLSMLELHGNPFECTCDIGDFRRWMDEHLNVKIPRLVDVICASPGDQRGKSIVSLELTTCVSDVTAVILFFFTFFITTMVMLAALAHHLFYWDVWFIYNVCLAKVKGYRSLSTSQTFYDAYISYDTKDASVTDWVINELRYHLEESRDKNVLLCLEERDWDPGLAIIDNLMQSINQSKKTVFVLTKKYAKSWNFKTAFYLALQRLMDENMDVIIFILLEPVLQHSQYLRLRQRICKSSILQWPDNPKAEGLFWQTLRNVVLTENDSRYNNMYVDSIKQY
As to the kind of experiment: TLR8 inhibition reporter assay (HEK-Blue cells, secreted embryonic alkaline phosphatase reporter). The following applies: HEK-Blue cells overexpressing human TLR8, stimulated with R848 15.9 μM; read-out: TLR 8 IC50. The method, boiled down:
as §1

The mark [1] stands for this setting: 22 hour incubation, reporter readout.

`Cc1cc(-c2ccc(CN3CC4(CN(C)C4)C3)cc2)cc2c1nc(-c1ccc(S(C)(=O)=O)cc1)n2C` [Example 370, 1,4-dimethyl-6-(4-((6-methyl-2,6-diazaspiro[3.3]heptan-2-yl)methyl)phenyl)-2-(4-(methylsulfonyl)phenyl)-1H-benzo[d]imidazole]: the IC50 at human TLR9 (setting [1]) came to 56 nM; on human TLR7, 1800 nM; on human TLR8 it was 4.5 µM.
As to `Cc1cc(-c2ccc(CN3CC4(C3)CN(CC(C)C)C4)cc2)cc2c1nc(-c1ccc(S(C)(=O)=O)cc1)n2C` [Example 371, 6-(4-((6-isobutyl-2,6-diazaspiro[3.3]heptan-2-yl)methyl)phenyl)-1,4-dimethyl-2-(4-(methylsulfonyl)phenyl)-1H-benzo[d]imidazole], the results for the 50% inhibitory concentration (IC50) on human TLR9 (setting [1]), on human TLR7 and at human TLR8 were 55 nM, 1800 nM and 6.8 µM, respectively.
`Cc1cc(-c2ccc(CN3CCC(N4CCCC4)CC3)cc2)cc2c1nc(-c1ccc(S(C)(=O)=O)cc1)n2C1CC1` [Example 372, 1-cyclopropyl-4-methyl-2-(4-(methylsulfonyl)phenyl)-6-(4-((4-(pyrrolidin-1-yl)piperidin-1-yl)methyl)phenyl)-1H-benzo[d]imidazole]: the half-inhibitory concentration (IC50) amounted to 54 nM at human TLR9 (setting [1]), 1400 nM at human TLR7 and 5.1 µM on human TLR8.
On to `CN(C)C1CCN(Cc2ccc(-c3ccc4nc(-c5ccccc5)n(C)c4c3)cc2)CC1` [Example 374, N,N-dimethyl-1-(4-(1-methyl-2-phenyl-1H-benzo[d]imidazol-6-yl)benzyl)piperidin-4-amine], for which the half-maximal inhibitory concentration (IC50) was 280 nM against human TLR9 (setting [1]), 279 nM at human TLR9 (read-out: TLR 9 IC50), 800 nM at human TLR7 and > 50 µM on human TLR8.
Consider `CN(C)C1CCN(Cc2ccc(-c3ccc4nc(-c5ccc(S(C)(=O)=O)cc5)n(C)c4c3)cc2)CC1` [Example 375, N,N-dimethyl-1-(4-(1-methyl-2-(4-(methylsulfonyl)phenyl)-1H-benzo[d]imidazol-6-yl)benzyl)piperidin-4-amine], for which the concentration for half-maximal inhibition (IC50) against human TLR9 (setting [1]) came out at 200 nM; at human TLR9 (read-out: TLR 9 IC50), 203 nM; at human TLR7 it was 1300 nM; on human TLR8 it was 0.4 µM.
For `COc1ccc(-c2nc3ccc(-c4ccc(CN5CCC(N(C)C)CC5)cc4)cc3n2C)cc1` [Example 376, 1-(4-(2-(4-methoxyphenyl)-1-methyl-1H-benzo[d]imidazol-6-yl)benzyl)-N,N-dimethylpiperidin-4-amine], in that order: 210 nM, 206 nM, 800 nM and 1.4 µM.
The corresponding values for `CN(C)C1CCN(Cc2ccc(-c3ccc4nc(-c5cccc(F)c5)n(C)c4c3)cc2)CC1` [Example 377, 1-(4-(2-(3-fluorophenyl)-1-methyl-1H-benzo[d]imidazol-6-yl)benzyl)-N,N-dimethylpiperidin-4-amine] are 350 nM, 346 nM, 1300 nM and 19.6 µM.
For the compound `CN(C)C1CCN(Cc2ccc(-c3ccc4nc(-c5ccc(F)cc5)n(C)c4c3)cc2)CC1` [Example 378, 1-(4-(2-(4-fluorophenyl)-1-methyl-1H-benzo[d]imidazol-6-yl)benzyl)-N,N-dimethylpiperidin-4-amine], the 50% inhibitory concentration (IC50) stood at 350 nM against human TLR9 (setting [1]), 349 nM at human TLR9 (read-out: TLR 9 IC50), 2200 nM at human TLR7 and 17.1 µM at human TLR8.
As to `CN(C)C1CCN(Cc2ccc(-c3ccc4nc(-c5ccccc5S(C)(=O)=O)n(C)c4c3)cc2)CC1` [Example 379, N,N-dimethyl-1-(4-(1-methyl-2-(2-(methylsulfonyl)phenyl)-1H-benzo[d]imidazol-6-yl)benzyl)piperidin-4-amine], the IC50 at human TLR9 (setting [1]) is 98 nM; on human TLR9 (read-out: TLR 9 IC50), 98 nM; at human TLR7, 1000 nM; at human TLR8 it was 18.8 µM.
For the compound `CN(C)C1CCN(Cc2ccc(-c3ccc4nc(-c5ccc(S(C)(=O)=O)cc5F)n(C)c4c3)cc2)CC1` [Example 380, 1-(4-(2-(2-fluoro-4-(methylsulfonyl)phenyl)-1-methyl-1H-benzo[d]imidazol-6-yl)benzyl)-N,N-dimethylpiperidin-4-amine], the concentration for half-maximal inhibition (IC50) on human TLR9 (setting [1]) turned out to be 174 nM; on human TLR9 (read-out: TLR 9 IC50) it was 174 nM; on human TLR7, 1300 nM; at human TLR8, 0.3 µM.
For `CN(C)C1CCN(Cc2ccc(-c3ccc4nc(-c5ccc(C#N)cc5)n(C)c4c3)cc2)CC1` [Example 383, 4-(6-(4-((4-(dimethylamino)piperidin-1-yl)methyl)phenyl)-1-methyl-1H-benzo[d]imidazol-2-yl)benzonitrile], the IC50 at human TLR9 (setting [1]) was 68 nM; on human TLR9 (read-out: TLR 9 IC50), 68 nM; on human TLR7 it was 2200 nM; at human TLR8, 2.3 µM.
